Holding throughout (type): cell-based
For assay [1], the target named is T1, β1-receptor (Cavia porcellus, UniProt H0W3H1).
T1 construct: isolated guinea pig atrial preparations; from tissue; host or cells: isolated guinea pig atria
Description: inhibition of the positive chronotropic actions of isoproterenol in isolated guinea pig atrial preparations (β1). The settings on record: isolated guinea pig atria, isoproterenol chronotropic action; read-out: pA2 values β1 (atria) (converted). How it is done: (§1) The in vitro β-adrenergic blocking properties of the novel compounds of this invention were evaluated in accordance with standard procedures. The interaction with the β1 -receptor was determined via inhibition of the positive chronotropic actions of isoproterenol in isolated guinea pig atrial preparations. β2 potency was determined by using isolated guinea pig tracheal chains contracted with PGF2@ and by measuring inhibition of isoproterenol-induced relaxation.

The subject of assay [2] is β1-receptor. Described as above. The settings on record: β1 (atria) versus β2 (trachea), from pA2 values. How it is done: as §1
Assay [3] concerns the target T2, β2 (trachea) (Cavia porcellus, UniProt Q8K4Z4).
T2 construct: isolated guinea pig tracheal chains; from tissue; host or cells: isolated guinea pig tracheal chains
Nature of the assay: inhibition of isoproterenol-induced relaxation in isolated guinea pig tracheal chains contracted with PGF2α (β2). The settings on record: read-out: pA2 values β2 (trachea) (converted). The protocol:
as §1

T1 sequence (H0W3H1 1-470): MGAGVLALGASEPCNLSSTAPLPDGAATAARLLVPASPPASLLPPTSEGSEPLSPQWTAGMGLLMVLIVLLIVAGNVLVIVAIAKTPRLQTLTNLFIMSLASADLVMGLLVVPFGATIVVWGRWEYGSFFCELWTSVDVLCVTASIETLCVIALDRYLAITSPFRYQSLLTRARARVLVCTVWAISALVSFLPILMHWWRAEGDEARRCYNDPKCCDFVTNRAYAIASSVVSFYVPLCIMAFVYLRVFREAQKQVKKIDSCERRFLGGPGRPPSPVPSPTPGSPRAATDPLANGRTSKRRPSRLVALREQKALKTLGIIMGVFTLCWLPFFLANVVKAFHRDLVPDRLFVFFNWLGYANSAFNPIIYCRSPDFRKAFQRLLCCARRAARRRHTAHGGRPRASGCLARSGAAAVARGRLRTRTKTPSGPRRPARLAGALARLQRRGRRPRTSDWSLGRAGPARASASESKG
T2 sequence (Q8K4Z4 whole entry): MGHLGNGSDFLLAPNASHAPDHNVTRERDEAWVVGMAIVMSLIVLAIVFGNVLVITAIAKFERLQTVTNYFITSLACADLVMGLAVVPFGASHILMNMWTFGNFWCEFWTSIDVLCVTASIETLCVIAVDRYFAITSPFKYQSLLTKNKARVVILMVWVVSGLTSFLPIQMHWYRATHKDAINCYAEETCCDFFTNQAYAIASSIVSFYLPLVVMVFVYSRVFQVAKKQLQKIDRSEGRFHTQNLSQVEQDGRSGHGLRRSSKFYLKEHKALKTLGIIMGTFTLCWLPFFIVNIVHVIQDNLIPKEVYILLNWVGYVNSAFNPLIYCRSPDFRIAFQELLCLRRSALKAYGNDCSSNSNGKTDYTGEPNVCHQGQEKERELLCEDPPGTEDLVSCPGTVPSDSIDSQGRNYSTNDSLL

On to `N#Cc1ccccc1OCC(O)CNCCc1cccnc1` (centres unmarked), for which the Kb in assay [1] was 23.4 nM; in assay [3], 138 nM. The Cardioselectivity ratio in assay [2] is 5.9.

As to `N#Cc1ccccc1OCC(O)CNCCc1ccncc1` (centres unmarked), the Kb was 74.1 nM in assay [1] and 302 nM in assay [3]. In assay [2], the Cardioselectivity ratio amounted to 4.1.

For `N#Cc1ccccc1OCC(O)CNCCN1CCNCC1` (centres unmarked), the Kb is 25.7 nM in assay [1] and 64.6 nM in assay [3]. Moreover, the Cardioselectivity ratio in assay [2] is given as 2.5.

Take `N#Cc1ccccc1OCC(O)CNCCc1ccccn1` (centres unmarked): the Kb was 34.7 nM in assay [1] and 34700 nM in assay [3]. Also, the Cardioselectivity ratio in assay [2] worked out at 1000.

Consider `N#Cc1ccccc1OCC(O)CNCCN1CCOCC1` (centres unmarked), for which the figures for the Kb in assay [1] and in assay [3] were 15.5 nM and 89.1 nM, respectively. Besides, the Cardioselectivity ratio in assay [2] stood at 5.8.

On to `CN(C)CCNCC(O)COc1ccccc1C#N` (centres unmarked) [N(CH3)2, 1-(2-cyanophenoxy)-3-[2-(dimethylamino)ethyl]-amino-2-propanol], for which the results for the Kb in assay [1] and in assay [3] were 43.7 nM and 1120 nM, respectively.

The values are drawn from US4788193A, “1-aryloxy-3-(substituted alkylamino)-2-propanols, pharmaceutical compositions and use” (Merck & Co., Inc., priority 1987, dated 1988).
